Results reported in patent publication US9617216B2, “Antifungal oxodihydropyridinecarbohydrazide derivative” (Daewoong Pharmaceutical Co., Ltd., priority 2013, dated 2017).
Values after ≈ are worked out from the molar mass of the structure shown.

tested on: Candida albicans; assay: In vitro antifungal activity test (MIC), Candida albicans; assay type: cell-based; conditions: Candida albicans; concentration at which growth is inhibited by 80% vs negative control; 35° C., 24 hours, RPMI 1640, alama blue
Experimental: The antifungal activities of the compounds of the present invention were evaluated using Candida albicans as yeast fungus, and Aspergillus fumigatus as a filamentous fungus. The above fungi used were all purchased from American Type Culture Collection (ATCC). The strains used in the experiment were inoculated into a Sabouraud dextrose agar medium, and then cultured at 35° C. for a sufficient period of time, e.g., 24 hours for Candida albicans, and about 7 days for Aspergillus fumigatus. As for Candida albicans, about 5 to 7 single colonies were taken from the cultured medium, sufficiently suspended in 1 ml of 0.85% sterile saline solution, and adjusted to have an optical density of 0.095 to 0.107 at 530 nm. A preparation of a strain diluent was diluted in Roswell park memorial institute (RPMI) 1640 medium at a 1:10 ratio, and the resultant was diluted again at a 1:100 ratio to obtain an inoculation preparation for Candida albicans with a concentration of 1.0×10^3 to 5.0×10^3 CFU/mL. As for Aspergillus fumigatus, the cultured Sabouraud dextrose agar was added with 1 mL of 0.2% Tween 20 diluted with 0.85% sterile saline solution, and then the plate was shaken to detach conidium from the plate. The solution collected from the plate surface was transferred into a sterile tube, and placed at room temperature for 5 minutes to deposit heavy substances. The resulting supernatant was transferred into the sterile tube, sufficiently suspended for about 15 seconds, and prepared a strain diluent with a concentration of 0.4×10^6 to 5.0×10^6 CFU/mL using a hemocytometer. The thus prepared strain diluent was diluted in RPMI 1640 medium at a 1:100 ratio to obtain an inoculation preparation for Aspergillus fumigatus. Candida albicans was cultured at 35° C. for 24 hours and Aspergillus fumigatus was cultured at 35° C. for 48 hours, and the concentrations, at which growth is inhibited by 80% or 50% compared to a negative control group, were determined using alama blue color developing reagent. All experiments were repeated twice for each concentration, and the results of antifungal activities (MIC80 MIC50 μg/mL) are shown in Tables 1 to 2.

SMILES | MIC80 [µg/mL]
O=C(NNc1cccc(F)c1)c1ccc(=O)n(-c2ccccc2F)c1 [Example 42, 1-(2-fluorophenyl)-N′-(3-fluorophenyl)-6-oxo-1,6-dihydropyridine-3-carbohydrazide] | 0.07 (≈ 0.205 µM)
Cc1nc(F)ccc1NNC(=O)c1ccc(=O)n(C)c1 [Example 20, N′-(6-fluoro-2-methylpyridine-3-yl)-1-methyl-6-oxo-1,6-dihydropyridine-3-carbohydrazide] | 0.22 (≈ 0.796 µM)
Cn1cc(C(=O)NNc2cccc(F)c2)c(Nc2ccc(C(F)(F)F)cc2)cc1=O [Example 35, N′-(3-fluorophenyl)-1-methyl-6-oxo-4-((4-(trifluoromethyl)phenyl)amino)-1,6-dihydropyridine-3-carbohydrazide] | 0.16 (≈ 0.381 µM)
Cn1cc(C(=O)NNc2ccc(Cl)cc2)cc(Cl)c1=O [Example 27, 5-chloro-N′-(4-chlorophenyl)-1-methyl-6-oxo-1,6-dihydropyridine-3-carbohydrazide] | 0.49 (≈ 1.57 µM)
O=C(NNc1ccc(F)cc1)c1ccc(=O)n(-c2cccc(C(F)(F)F)c2)c1 [Example 46, N′-(4-fluorophenyl)-6-oxo-1-(3-(trifluoromethyl)phenyl)-1,6-dihydropyridine-3-carbohydrazide] | 0.31 (≈ 0.792 µM)
Cn1cc(C(=O)NNc2ccc(C#N)cc2)ccc1=O [Example 7, N′-(4-cyanophenyl)-1-methyl-6-oxo-1,6-dihydropyridine-3-carbohydrazide] | 0.84 (≈ 3.13 µM)
Cn1cc(C(=O)NNc2cccc(F)c2)c(Cl)cc1=O [Example 22, 4-chloro-N′-(3-fluorophenyl)-1-methyl-6-oxo-1,6-dihydropyridine-3-carbohydrazide] | 0.23 (≈ 0.778 µM)
Cn1cc(C(=O)NNc2ccc(Cl)c(Cl)c2)ccc1=O [Example 14, N′-(3,4-dichlorophenyl)-1-methyl-6-oxo-1,6-dihydropyridine-3-carbohydrazide] | 0.06 (≈ 0.192 µM)

The remaining lines, values ahead:

MIC80 [µg/mL] | SMILES
0.04 (≈ 0.0892 µM) | O=C(Cn1cc(C(=O)NNc2cccc(F)c2)ccc1=O)Nc1ccc(C(F)(F)F)cc1 [Example 71, 2-(5-(2-(3-fluorophenyl)hydrazinecarbonyl)-2-oxopyridine-1(2H)-yl)-N-(4-(trifluoromethyl)phenyl)acetamide]
0.12 (≈ 0.393 µM) | COCCn1cc(C(=O)NNc2cccc(F)c2)ccc1=O [Example 76, N′-(3-fluorophenyl)-1-(2-methoxyethyl)-6-oxo-1,6-dihydropyridine-3-carbohydrazide]
0.56 (≈ 1.55 µM) | O=C(NNc1cccc(F)c1)c1ccc(=O)n(CCN2CCOCC2)c1 [Example 73, N′-(3-fluorophenyl)-1-(2-morpholinoethyl)-6-oxo-1,6-dihydropyridine-3-carbohydrazide]
0.34 (≈ 0.785 µM) | O=C(Cn1cc(C(=O)NNc2cccc(F)c2)ccc1=O)c1ccc(C(F)(F)F)cc1 [Example 68, N′-(3-fluorophenyl)-6-oxo-1-(2-oxo-2-(4-(trifluoromethyl)phenyl)ethyl)-1,6-dihydropyridine-3-carbohydrazide]
0.09 (≈ 0.201 µM) | O=C(Cn1cc(C(=O)NNc2ccc(F)cc2)ccc1=O)Nc1ccc(C(F)(F)F)cc1 [Example 72, 2-(5-(2-(4-fluorophenyl)hydrazinecarbonyl)-2-oxopyridine-1(2H)-yl)-N-(4-(trifluoromethyl)phenyl)acetamide]
1.95 (≈ 6.26 µM) | O=C1NNc2ccccc2OCC/C=C/Cn2cc1ccc2=O [Example 81, (1^5E,9E)-1^1,1^2-dihydro-6-oxa-3,4-diaza-1(5,1)-pyridina-5(1,2)-benzenacycloundecaphan-9-ene-1^2,2-dione]
0.08 (≈ 0.208 µM) | O=C(NNc1cccc(F)c1)c1ccc(=O)n(CCOc2ccc(F)cc2)c1 [Example 65, 1-(2-(4-fluorophenoxy)ethyl)-N′-(3-fluorophenyl)-6-oxo-1,6-dihydropyridine-3-carbohydrazide]
0.09 (≈ 0.199 µM) | O=C(Cn1cc(C(=O)NNc2ccc(F)c(F)c2)ccc1=O)c1ccc(C(F)(F)F)cc1 [Example 70, N′-(3,4-difluorophenyl)-6-oxo-1-(2-oxo-2-(4-(trifluoromethyl)phenyl)ethyl)-1,6-dihydropyridine-3-carbohydrazide]
